This is an account of results in PubChem BioAssay AID330 (DTP/NCI, 2004).

Where “and” joins values, the source holds several entries; their conditions need not be identical. Equal values may be shown once. Inconclusive results and toxic doses are left out.

The experiment concerns P388 leukemia ip, CD2F1 mice, survival T/C. Put plainly: NCI In Vivo Anticancer Drug Screen. Data for tumor model P388 Leukemia (intraperitoneal) in CD2F1 (CDF1) mice. The note with it: endpoint: median survival time, higher = longer survival. The procedure, abridged: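 Mice carrying the transplanted tumor received test compound or vehicle. Survival was recorded in each group, and the value is the treated-group measurement divided by that of the vehicle-treated control group.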

Where [1] appears, read: dose: 50.0 mg/kg/injection, schedule: Q01DX005 (ip), vehicle: saline with Tween-80.
Where [2] appears, read: dose: 100.0 mg/kg/injection, schedule: Q01DX005 (ip), vehicle: saline with Tween-80.
The mark [3] stands for this setting: dose: 200.0 mg/kg/injection, schedule: Q01DX005 (ip), vehicle: saline with Tween-80.
Where [4] appears, read: dose: 60.0 mg/kg/injection, schedule: Q01DX005 (ip), vehicle: Klucel (hydroxypropylcellulose) (HPC).
Where [5] appears, read: dose: 120.0 mg/kg/injection, schedule: Q01DX005 (ip), vehicle: Klucel (hydroxypropylcellulose) (HPC).
The mark [6] stands for this setting: dose: 240.0 mg/kg/injection, schedule: Q01DX005 (ip), vehicle: Klucel (hydroxypropylcellulose) (HPC).
Setting [7] is: dose: 6.25 mg/kg/injection, schedule: Q04DX003 (ip), vehicle: saline with Tween-80.
Where [8] appears, read: dose: 100.0 mg/kg/injection, schedule: Q01DX001 (ip), vehicle: Klucel (hydroxypropylcellulose) (HPC).
Setting [9] is: dose: 200.0 mg/kg/injection, schedule: Q01DX001 (ip), vehicle: Klucel (hydroxypropylcellulose) (HPC).
[10] abbreviates: dose: 400.0 mg/kg/injection, schedule: Q01DX001 (ip), vehicle: Klucel (hydroxypropylcellulose) (HPC).
The mark [11] stands for this setting: dose: 50.0 mg/kg/injection, schedule: Q01DX009 (ip), vehicle: Klucel (hydroxypropylcellulose) (HPC).

Take `c1ccc2c(c1)[nH]c1c2c(N2CCOCC2)nn2nnnc12`: the T/C by setting is: (dose: 100.0 mg/kg/injection, schedule: Q01DX001 (ip), vehicle: saline with Tween-80) 107 % of control; (dose: 200.0 mg/kg/injection, schedule: Q01DX001 (ip), vehicle: saline with Tween-80) 106 % of control; (dose: 400.0 mg/kg/injection, schedule: Q01DX001 (ip), vehicle: saline with Tween-80) 109 % of control.
For `C=CCOc1cc2c(cc1C(CC)c1ccc(OCc3ccccc3)cc1)OCO2` (stereo unspecified), the T/C is, setting by setting: under setting [1], 102 % of control; under setting [2], 100 % of control; under setting [3], 95 % of control.
`COc1cc(C2c3cc4c(cc3OC3(N5CCCC5)CCCC23)OCO4)cc(OC)c1OC` (stereo unspecified): the T/C by setting is: under setting [4], 96 % of control; under setting [5], 97 % of control; under setting [6], 96 % of control.
For `O=C(NC1=C(N2CC2)C(=O)C(NC(=O)OCCO)=C(N2CC2)C1=O)OCCO`, the T/C runs as follows: (dose: 0.18 mg/kg/injection, schedule: Q01DX009 (ip), vehicle: saline) 174 % of control; (dose: 0.39 mg/kg/injection, schedule: Q01DX009 (ip), vehicle: saline) 170 % of control; (dose: 0.75 mg/kg/injection, schedule: Q01DX009 (ip), vehicle: saline) 218 % of control; (dose: 1.5 mg/kg/injection, schedule: Q01DX009 (ip), vehicle: saline) 169 % of control and 175 % of control; (dose: 3.0 mg/kg/injection, schedule: Q01DX009 (ip), vehicle: saline) 202 % of control and 211 % of control; (dose: 6.0 mg/kg/injection, schedule: Q01DX009 (ip), vehicle: saline) 239 % of control and 258 % of control.
In the case of `CCC1=Nc2ccccc2C(c2ccccc2)NC1=O` (stereo unspecified), the T/C is 97 % of control under setting [4], 100 % of control under setting [5] and 94 % of control under setting [6].
Turning to `O=C(NC1=NN(c2ccccc2)C(=O)C1)c1ccccc1`, the T/C was 101 % of control (dose: 9.37 mg/kg/injection, schedule: Q01DX009 (ip), vehicle: saline); 110 % of control (dose: 18.75 mg/kg/injection, schedule: Q01DX009 (ip), vehicle: saline); 98 % of control (dose: 37.5 mg/kg/injection, schedule: Q01DX009 (ip), vehicle: saline).
Consider `CCCCCCCCCCCCCCCC[N+](C)(C)C(C)c1ccccc1` (stereo unspecified), for which the T/C (dose: 0.78 mg/kg/injection, schedule: Q04DX003 (ip), vehicle: saline with Tween-80) was 104 % of control and 106 % of control; the T/C (dose: 1.56 mg/kg/injection, schedule: Q04DX003 (ip), vehicle: saline with Tween-80) was 116 % of control and 118 % of control; the T/C under setting [7] was 117 % of control.
Regarding `C=C(C)OC1NC(=O)Oc2ccccc21` (stereo unspecified), the T/C (dose: 60.0 mg/kg/injection, schedule: Q01DX005 (ip), vehicle: saline with Tween-80) is 98 % of control; the T/C (dose: 120.0 mg/kg/injection, schedule: Q01DX005 (ip), vehicle: saline with Tween-80) was 109 % of control; the T/C (dose: 240.0 mg/kg/injection, schedule: Q01DX005 (ip), vehicle: saline with Tween-80) was 100 % of control.
Consider `Cc1ccc(OP(=O)(Oc2ccc(C)cc2)Oc2ccc(C)cc2)cc1.Cc1ccc(OP(=O)(Oc2ccc(C)cc2)Oc2ccc(C)cc2)cc1.[Cl][Co][Cl]`, for which the T/C reads like this: under setting [8], 96 % of control; under setting [9], 100 % of control; under setting [10], 92 % of control.
Consider `O=C(NC(CSSCC(NC(=O)c1ccc([N+](=O)[O-])cc1)C(=O)O)C(=O)O)c1ccc([N+](=O)[O-])cc1` (stereo unspecified), for which the T/C by setting is: under setting [1], 108 % of control; under setting [2], 101 % of control; under setting [3], 109 % of control.
As for `CCP(c1ccccc1)c1ccccc1`, the T/C was 100 % of control under setting [8]; 107 % of control (dose: 100.0 mg/kg/injection, schedule: Q01DX001 (ip), vehicle: saline); 98 % of control under setting [9]; 96 % of control (dose: 200.0 mg/kg/injection, schedule: Q01DX001 (ip), vehicle: saline); 103 % of control under setting [10]; 96 % of control (dose: 400.0 mg/kg/injection, schedule: Q01DX001 (ip), vehicle: saline). Moreover, the T/C (dose: 600.0 mg/kg/injection, schedule: Q01DX001 (ip), vehicle: Klucel (hydroxypropylcellulose) (HPC)) was 102 % of control.
As to `CCCCCCC1(C(=O)OCCN(CC)CC)CCCCC1`, the T/C is, setting by setting: under setting [1], 101 % of control; under setting [2], 105 % of control.
In the case of `O=C(O)c1cc(O)ccc1O`, the T/C was 104 % of control (dose: 25.0 mg/kg/injection, schedule: Q01DX009 (ip), vehicle: saline); 90 % of control (dose: 50.0 mg/kg/injection, schedule: Q01DX009 (ip), vehicle: saline); 97 % of control (dose: 100.0 mg/kg/injection, schedule: Q01DX009 (ip), vehicle: saline); 94 % of control (dose: 200.0 mg/kg/injection, schedule: Q01DX009 (ip), vehicle: saline).
Regarding `CSC(CNC(=O)N(CCCl)N=O)n1cc(F)c(=O)[nH]c1=O` (stereo unspecified), the T/C was 161 % of control (dose: 3.12 mg/kg/injection, schedule: Q04DX003 (ip), vehicle: saline with Tween-80); 158 % of control and 171 % of control under setting [7]; 220 % of control and 264 % of control (dose: 12.5 mg/kg/injection, schedule: Q04DX003 (ip), vehicle: saline with Tween-80); 266 % of control and 285 % of control (dose: 25.0 mg/kg/injection, schedule: Q04DX003 (ip), vehicle: saline with Tween-80); 275 % of control and 285 % of control (dose: 50.0 mg/kg/injection, schedule: Q04DX003 (ip), vehicle: saline with Tween-80); 110 % of control and 123 % of control (dose: 100.0 mg/kg/injection, schedule: Q04DX003 (ip), vehicle: saline with Tween-80).
As for `COc1cccc2c1C(=O)c1c(O)c3c(c(O)c1C2=O)C[C@@](O)(C(=O)CO)C[C@@H]3OC1CC(N2CCCCC2)C(O)C(C)O1` (stereo partly specified), the T/C was 151 % of control (dose: 0.78 mg/kg/injection, schedule: Q01DX009 (ip), vehicle: water); 100 % of control (dose: 1.2 mg/kg/injection, schedule: Q04DX003 (ip), vehicle: water); 184 % of control (dose: 1.56 mg/kg/injection, schedule: Q01DX009 (ip), vehicle: water); 113 % of control (dose: 2.4 mg/kg/injection, schedule: Q04DX003 (ip), vehicle: water); 190 % of control (dose: 3.13 mg/kg/injection, schedule: Q01DX009 (ip), vehicle: water); 106 % of control (dose: 4.7 mg/kg/injection, schedule: Q04DX003 (ip), vehicle: water). Besides, the T/C is 155 % of control (dose: 9.4 mg/kg/injection, schedule: Q04DX003 (ip), vehicle: water) and 87 % of control (dose: 37.5 mg/kg/injection, schedule: Q04DX003 (ip), vehicle: water).
As for `CC(=O)OC1=NC(C)c2c1cc(OC(C)=O)nc2OC(C)=O` (stereo unspecified), the T/C was 104 % of control under setting [11]; 102 % of control (dose: 100.0 mg/kg/injection, schedule: Q01DX009 (ip), vehicle: Klucel (hydroxypropylcellulose) (HPC)); 102 % of control (dose: 200.0 mg/kg/injection, schedule: Q01DX009 (ip), vehicle: Klucel (hydroxypropylcellulose) (HPC)).
Regarding `CC(=O)C1CCC2=C(C1)C(=O)c1cc3c(cc1C2=O)C1(c2ccccc2)OC3(c2ccccc2)C2C(=O)N(c3ccccc3)C(=O)C21` (stereo unspecified), the T/C is 90 % of control under setting [4] and 88 % of control under setting [5].
Regarding `CCC1C2Cc3ccc(O)cc3C1(C)CCN2` (stereo unspecified), the T/C was 95 % of control (dose: 60.0 mg/kg/injection, schedule: Q01DX005 (ip), vehicle: saline) and 98 % of control (dose: 120.0 mg/kg/injection, schedule: Q01DX005 (ip), vehicle: saline).
For `CCCCCCCCCCCCC[N+](C)([O-])CCCCCC[N+](C)([O-])CCCCCCCCCCCCC` (stereo unspecified), the T/C by setting is: (dose: 12.5 mg/kg/injection, schedule: Q01DX009 (ip), vehicle: Klucel (hydroxypropylcellulose) (HPC)) 100 % of control; (dose: 25.0 mg/kg/injection, schedule: Q01DX009 (ip), vehicle: Klucel (hydroxypropylcellulose) (HPC)) 93 % of control; under setting [11], 101 % of control and 93 % of control.
Consider `COc1cc(C2c3cc4c(cc3C(OC3CCCCO3)C3COC(=O)C23)OCO4)cc(OC)c1OC` (stereo unspecified), for which, under “dose: 3.12 mg/kg/injection, schedule: Q01DX005 (ip), vehicle: Klucel (hydroxypropylcellulose) (HPC)”, the T/C is 117 % of control.
